Measured values from patent US20070142411A1, “Use of cyclooxygenase-2 selective inhibitors for the treatment of schizophrenic disorders” (priority 2003, published 2007).

Assays:
human COX-2 = target: T1, human COX-2 (Homo sapiens, UniProt P35354); assay: Inhibition of PGE2 release in COS cells stably transfected with human COX-2; type: cell-based; details: COS cells transfected with human COX-2, 30 μM arachidonic acid
T1 construct: expressed in transfected cells; host or cells: COS cells (stably transfected)
T1 sequence (P35354 18-604): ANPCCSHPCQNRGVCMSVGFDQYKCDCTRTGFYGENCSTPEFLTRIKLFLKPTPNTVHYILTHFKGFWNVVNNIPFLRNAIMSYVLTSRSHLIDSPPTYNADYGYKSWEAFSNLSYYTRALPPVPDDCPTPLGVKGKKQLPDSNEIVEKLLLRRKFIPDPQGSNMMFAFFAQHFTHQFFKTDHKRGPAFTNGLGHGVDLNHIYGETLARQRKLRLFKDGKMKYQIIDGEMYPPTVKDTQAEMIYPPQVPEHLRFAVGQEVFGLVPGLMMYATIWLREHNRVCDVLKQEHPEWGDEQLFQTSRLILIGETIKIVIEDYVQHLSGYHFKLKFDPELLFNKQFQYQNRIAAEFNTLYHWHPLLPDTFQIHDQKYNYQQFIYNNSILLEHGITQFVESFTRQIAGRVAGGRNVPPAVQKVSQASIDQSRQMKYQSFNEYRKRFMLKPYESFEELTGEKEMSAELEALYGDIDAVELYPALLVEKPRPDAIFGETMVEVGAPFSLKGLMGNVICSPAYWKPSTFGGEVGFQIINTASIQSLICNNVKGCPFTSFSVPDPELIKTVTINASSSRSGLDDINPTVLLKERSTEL

human COX-1 = target: T2, human COX-1 (Homo sapiens, UniProt P23219); assay: Inhibition of PGE2 release in COS cells stably transfected with human COX-1; type: cell-based; details: COS cells transfected with human COX-1, 30 μM arachidonic acid
T2 construct: expressed in transfected cells; host or cells: COS cells (stably transfected)
T2 sequence (P23219 24-599): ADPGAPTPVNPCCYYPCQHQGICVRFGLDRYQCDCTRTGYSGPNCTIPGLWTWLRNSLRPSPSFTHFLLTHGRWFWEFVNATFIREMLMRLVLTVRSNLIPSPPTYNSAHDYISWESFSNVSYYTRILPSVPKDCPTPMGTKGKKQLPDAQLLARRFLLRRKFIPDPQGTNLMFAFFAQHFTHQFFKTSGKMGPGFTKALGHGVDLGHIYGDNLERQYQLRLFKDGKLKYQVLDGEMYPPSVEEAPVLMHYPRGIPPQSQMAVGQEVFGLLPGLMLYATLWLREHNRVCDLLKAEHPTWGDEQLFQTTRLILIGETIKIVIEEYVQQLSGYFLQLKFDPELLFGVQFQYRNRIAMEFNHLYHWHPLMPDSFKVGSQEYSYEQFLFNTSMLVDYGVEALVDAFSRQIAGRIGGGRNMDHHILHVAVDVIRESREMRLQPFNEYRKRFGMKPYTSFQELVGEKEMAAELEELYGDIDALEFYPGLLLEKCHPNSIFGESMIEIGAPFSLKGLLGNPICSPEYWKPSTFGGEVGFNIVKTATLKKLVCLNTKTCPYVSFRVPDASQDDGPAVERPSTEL
Method: 24 Hours prior to experiment, COS cells were transferred from the 175 cm^2 flasks in which they were grown, onto 24-well cell culture plates using the following procedure. The incubation medium (Dulbecco's modified eagles medium (DMEM) supplemented with heat-inactivated foetal calf serum (10% v/v), penicillin (100 IU/ml), streptomycin (100 μg/ml) and genebcin (600 μg/ml)) was removed from a flask of confluent cells (1 flask at confluency contains approximately lx107 cells). 10 mI of phosphate buffered saline (PBS) was added to the flask to wash the cells. Having discarded the PBS, cells were then rinsed in 10 ml trypsin for 20 seconds, after which the trypsin was removed and the flask placed in an incubator (37°) for 1-2 minutes unbil cells became detached from the flask. The flask was then removed from the incubator and cells resuspended in 10 ml of fresh incubation medium. The contents of the flask was transferred to a 250 ml sterile container and the volume of incubation medium subsequently made up to 100 ml. […] If more than 1 flask of cells were required, the cells from the individual flasks were combined before being dispensed into the 24-well plates.
Following the overnight incubation, the incubation medium was completely removed from the 24-well cell culture plates and replaced with 250 μl fresh DMEM (37° C.). The test compounds were made up to 250× the required test concentration in DMSO and were added to the wells in a volume of 1 μl. […] Plates were then incubated for a further 15 minutes, after which the incubation medium was removed from each well of the plates and stored at −20° C., prior to determination of prostaglandin E2 (PGE2) levels using enzyme immunoassay. […] The selectivity ratio of inhibition of COX-1 versus COX-2 was calculated by comparing respective IC50 values.

microsomal h-COX2 = target: T3, microsomal h-COX2 (Homo sapiens, UniProt P35354); assay: Microsomal assay, h-COX2 preparation from baculovirus infected SF9 cells; type: biochemical; details: stated in text under the microsomal assay; read-out: IC50 values for inhibition of COX-2
T3 construct: made in house; host or cells: baculovirus infected SF9 cells (microsomal preparation)
T3 sequence (P35354 18-604): T1 sequence (P35354 18-604)
Method: Inhibitory activity against microsomal h-COX2 was assessed against a microsomal preparation from baculovirus infected SF9 cells. An aliquot of microsomal preparation was thawed slowly on ice and a 1/40,000 dilution prepared from it into the assay buffer (sterile water, degassed with argon containing 100 mM HEPES (pH 7.4), 10 mM EDTA (pH7.4), 1 mM phenol, 1 mM reduced glutathione, 20 mg/ml gelatin and 0.001 mM Hematin). Once diluted the enzyme solution was then sonicated for 5 seconds (Branson sonicator, setting 4, 1 cm tip) to ensure a homogeneous suspension. […] Plates were then mixed and incubated at room temperature for 1 hour. Following the incubation period, 40 μl of 0.5 μM arachidonic acid was added to each well to give a final concentration of 0.1 μM. Plates were then mixed and incubated for exactly 10 minutes (room temperature) prior to addition of 25 μl 1M HCl (hydrochloric acid) to each well to stop the reaction. 25 μl of 1M NaOH (sodium hydroxide) was then added to each well to neutralise the solution prior to determination of PGE2 levels by enzyme immunoassay (EIA).

| IC50 (human COX-2) [nM] | IC50 (human COX-1) [nM] | IC50 (microsomal h-COX2) [nM] | Compound |
| --- | --- | --- | --- |
| 4 | 2920 | – | COc1ccc(Oc2nc(-c3ccc(S(C)(=O)=O)cc3)cc(C(F)(F)F)n2)cc1 [Example 1.3] |
| – | – | ≤ 500 | CS(=O)(=O)c1ccc(-c2cc(C(F)(F)F)cc(NC3CCCCC3)n2)cc1 [Example 3.1, N-cyclohexyl-4-(trifluoromethyl)-6-[4-(methylsulfonyl)phenyl]pyridine-2-amine] |
| 0.44 | 3830 | – | CCOc1ccc(-c2nn3ncccc3c2-c2ccc(S(N)(=O)=O)cc2)cc1 [2.6(iv), 4-[2-(4-Ethoxy-phenyl)-pyrazolo[1,5-b]pyridazin-3-yl]-benzenesulfonamide] |
| 3 | – | – | CCOc1ccc(-c2nn3ncccc3c2-c2ccc(S(C)(=O)=O)cc2)cc1 [2.3(ii), 2-(4-Ethoxy-phenyl)-3-(4-methanesulfonyl-phenyl)-pyrazolo[1,5-b]pyridazine] |
| – | – | ≤ 500 | Cc1cc(NCc2cnn(C)c2)nc(-c2ccc(S(C)(=O)=O)cc2)c1 [Example 3.3, 4-methyl-N-[(1-methyl-1H-pyrazol-4-yl)methyl]-6-[4-(methylsulfonyl)phenyl]-2-pyridinamine] |
| < 1 | 81300 | – | CS(=O)(=O)c1ccc(-c2cc(C(F)(F)F)nc(Oc3ccc(F)cc3)n2)cc1 [Example 1.1, 2-(4-Fluorophenoxy)-4-[4-(methylsulfonyl)phenyl]-6-(tiifluoromethyl)pyrimidine] |
| – | 3880 | – | COc1ccc(-c2nn3ncccc3c2-c2ccc(S(C)(=O)=O)cc2)cc1 [2.2(ii), 3-(4-Methanesulfonyl-phenyl)-2-(4-methoxy-phenyl)-pyrazolo[1,5-b]pyridazine] |
| 370 | – | – | CS(=O)(=O)c1ccc(-c2c(-c3ccc(F)cc3)nn3nc(S(C)(=O)=O)ccc23)cc1 [2.4(iii), 2-(4-Fluoro-phenyl)-6-methanesulfonyl-3-(4-methanesulfonyl-phenyl)-pyrazolo[1,5-b]pyridazine] |
